Measured values from patent publication US4315942A, “Intravenously administrable iron supplement” (New England Medical Center, Inc., priority 1979, dated 1982).

What was measured:
[1] = Hgb and Hct after IV injection of the complex in a dog; type: in vivo; conditions: after injection of 12 mg Fe, IV push, about 10 minutes
Procedure: (§1) A 17 kg dog was premedicated and then anesthesized with IV sodium amytal. Through a femoral vein cutdown, the following studies were drawn before and after the addition of the iron complex solution: Hgb, Hct, serum Fe and TIBC (Total Iron Binding Capacity). In addition, serum Fe and TIBC were drawn after the addition of one half of the solution.
(§2) 40 ml of fresh stock solution (containing 6 mg of iron) were given by IV push through the femoral vein. The dog's ECG was monitored throughout the procedure. In approximately 10 minutes, the second set of studies were drawn and a second 40 ml were pushed. The final set of blood studies were drawn in approximately 10 minutes.

serum transferrin = experiment: Serum Fe, TIBC and saturation of serum transferrin after IV injection of the complex in a dog (efficacy to increase bioavailable iron); type: in vivo; conditions: for serum Fe / TIBC (Total Iron Binding Capacity): IV push; for serum Fe: before injection 235 (dog fed an iron rich diet); for TIBC (Total Iron Binding Capacity): before injection 360
Procedure: as §1, §2

[2] = oral, relatively large daily doses; cited from earlier work
[3] = after injection of 6 mg Fe, about 10 minutes
[4] = after injection of 12 mg Fe, about 10 minutes after second 40 ml

CC(=O)N[O-].CC(=O)N[O-].CC(=O)N[O-].[Fe+3] [ferric acetohydroxamic acid complex, iron (III) complex of acetohydroxamic acid]
Hgb ([1]; before injection 6.7): 6.5 g% | Hct ([1]; before injection 20.5): 20.0% | saturation of serum transferrin (serum transferrin; addition of 6 mg of iron, IV, serum Fe equal to the TIBC): saturated the serum transferrin | serum iron relative to TIBC (serum transferrin; after a further 6 mg of iron, IV): greater than the TIBC | serum Fe (serum transferrin; [3]): 360 μg/100 ml | TIBC (Total Iron Binding Capacity) (serum transferrin; [3]): 360 μg/100 ml | serum Fe (serum transferrin; [4]): 470 μg/100 ml | TIBC (Total Iron Binding Capacity) (serum transferrin; [4]): 330 μg/100 ml

ferrous sulfate
side effects [2]: nausea, vomiting, constipation
